Laboratory results: patent publication US10800816B2 (Baxalta GmbH, priority 2012, dated 2020)

Test system: not listed separately
Experiment: Pharmacokinetics in C57Bl6 mice
Type: in vivo, mouse
Details: 1 mg/kg peptide content, intravenous, 1 mg/kg

Compound	HL_λ_z [h] (intravenous)
Ac-FQSKpNVHVDGYFERL-Aib-AKLC(PEG)-NH2 [JBT2326] (FQSKPNVHVDGYFERLXAKLC; acetyl, D-Pro, Aib, Cys-PEG 12.1 kD, amide; MOD_RES (1)..(1): N-terminal acetylation; MOD_RES (5)..(5): D-Pro; MOD_RES (17)..(17): Xaa is 2-amino-isobutyric acid; MOD_RES (21)..(21): Cys-PEG; MOD_RES (21)..(21): C-terminal amidation)	0.35
Ac-FQSKpNVHVDGYFERL-Aib-AKLC(PEG)-NH2 [JBT2327] (FQSKPNVHVDGYFERLXAKLC; acetyl, D-Pro, Aib, Cys-PEG 21.0 kD, amide; MOD_RES (1)..(1): N-terminal acetylation; MOD_RES (5)..(5): D-Pro; MOD_RES (17)..(17): Xaa is 2-amino-isobutyric acid; MOD_RES (21)..(21): Cys-PEG; MOD_RES (21)..(21): C-terminal amidation) [PEG 21.0 kD, linear maleimide PEG]	4.2
Ac-FQSKpNVHVDGYFERL-Aib-AKLC(PEG)-NH2 [JBT2325] (FQSKPNVHVDGYFERLXAKLC; acetyl, D-Pro, Aib, Cys-PEG 5.3 kD, amide; MOD_RES (1)..(1): N-terminal acetylation; MOD_RES (5)..(5): D-Pro; MOD_RES (17)..(17): Xaa is 2-amino-isobutyric acid; MOD_RES (21)..(21): Cys-PEG; MOD_RES (21)..(21): C-terminal amidation) [PEG 5.3 kD, linear maleimide PEG]	0.16
Ac-FQSKpNVHVDGYFERL-Aib-AKLC(PEG)-NH2 [JBT2328] (FQSKPNVHVDGYFERLXAKLC; acetyl, D-Pro, Aib, Cys-PEG 29.1 kD, amide; MOD_RES (1)..(1): N-terminal acetylation; MOD_RES (5)..(5): D-Pro; MOD_RES (17)..(17): Xaa is 2-amino-isobutyric acid; MOD_RES (21)..(21): Cys-PEG; MOD_RES (21)..(21): C-terminal amidation) [PEG 29.1 kD, linear maleimide PEG]	10.1

Same assay, conditions: 1 mg/kg peptide content, s.c. AUC vs i.v. AUC, 1 mg/kg

Compound	Bioavailability [%] (s.c.)
Ac-FQSKpNVHVDGYFERL-Aib-AKLC(PEG)-NH2 [JBT2326] (FQSKPNVHVDGYFERLXAKLC; acetyl, D-Pro, Aib, Cys-PEG 12.1 kD, amide; MOD_RES (1)..(1): N-terminal acetylation; MOD_RES (5)..(5): D-Pro; MOD_RES (17)..(17): Xaa is 2-amino-isobutyric acid; MOD_RES (21)..(21): Cys-PEG; MOD_RES (21)..(21): C-terminal amidation)	76.0
Ac-FQSKpNVHVDGYFERL-Aib-AKLC(PEG)-NH2 [JBT2327] (FQSKPNVHVDGYFERLXAKLC; acetyl, D-Pro, Aib, Cys-PEG 21.0 kD, amide; MOD_RES (1)..(1): N-terminal acetylation; MOD_RES (5)..(5): D-Pro; MOD_RES (17)..(17): Xaa is 2-amino-isobutyric acid; MOD_RES (21)..(21): Cys-PEG; MOD_RES (21)..(21): C-terminal amidation) [PEG 21.0 kD, linear maleimide PEG]	89.7
Ac-FQSKpNVHVDGYFERL-Aib-AKLC(PEG)-NH2 [JBT2325] (FQSKPNVHVDGYFERLXAKLC; acetyl, D-Pro, Aib, Cys-PEG 5.3 kD, amide; MOD_RES (1)..(1): N-terminal acetylation; MOD_RES (5)..(5): D-Pro; MOD_RES (17)..(17): Xaa is 2-amino-isobutyric acid; MOD_RES (21)..(21): Cys-PEG; MOD_RES (21)..(21): C-terminal amidation) [PEG 5.3 kD, linear maleimide PEG]	58.2
Ac-FQSKpNVHVDGYFERL-Aib-AKLC(PEG)-NH2 [JBT2328] (FQSKPNVHVDGYFERLXAKLC; acetyl, D-Pro, Aib, Cys-PEG 29.1 kD, amide; MOD_RES (1)..(1): N-terminal acetylation; MOD_RES (5)..(5): D-Pro; MOD_RES (17)..(17): Xaa is 2-amino-isobutyric acid; MOD_RES (21)..(21): Cys-PEG; MOD_RES (21)..(21): C-terminal amidation) [PEG 29.1 kD, linear maleimide PEG]	52.0

Test system: not listed separately
Experiment: FIGURE 78O
Details: not given

Compound	24 h Human Plasma Stability | Mean Remaining [%]	24 h Mouse Plasma Stability | Mean Remaining [%]
Ac-FQSKpNVHV-C(ME-400MA)-GYFERL-Aib-AKL-NH2 [JBT00002403]	96.70	92.50
Ac-FQSKp-C(ME-400MA)-VHVDGYFERL-Aib-AKL-NH2 [JBT00002402]	75.30	99.70
CCSC1CC(=O)N(CCC(=O)NCCCOCCOCCOCCCNC(=O)CCC(=O)NCCCC[C@H](NC(=O)[C@H](CC(C)C)NC(=O)[C@H](CCCCN)NC(=O)[C@H](C)NC(=O)C(C)(C)NC(=O)[C@H](CC(C)C)NC(=O)[C@H](CCCNC(=N)N)NC(=O)[C@H](CCC(=O)O)NC(=O)[C@H](Cc2ccccc2)NC(=O)[C@H](Cc2ccc(O)cc2)NC(=O)CNC(=O)[C@H](CC(=O)O)NC(=O)[C@@H](NC(=O)[C@H](Cc2c[nH]cn2)NC(=O)[C@@H](NC(=O)[C@H](CC(N)=O)NC(=O)[C@H]2CCCN2C(=O)[C@H](CCCCN)NC(=O)[C@H](CO)NC(=O)[C@H](CCC(N)=O)NC(=O)[C@H](Cc2ccccc2)NC(C)=O)C(C)C)C(C)C)C(N)=O)C1=O (stereo partly shown) [JBT00002400]	60.00	
CCN1C(=O)CC(SC[C@H](NC(=O)[C@@H](NC(=O)[C@H](Cc2c[nH]cn2)NC(=O)[C@@H](NC(=O)[C@H](CC(N)=O)NC(=O)[C@H]2CCCN2C(=O)[C@H](CCCCN)NC(=O)[C@H](CO)NC(=O)[C@H](CCC(N)=O)NC(=O)[C@H](Cc2ccccc2)NC(C)=O)C(C)C)C(C)C)C(=O)NCC(=O)N[C@@H](Cc2ccc(O)cc2)C(=O)N[C@@H](Cc2ccccc2)C(=O)N[C@@H](CCC(=O)O)C(=O)N[C@@H](CCCNC(=N)N)C(=O)N[C@@H](CC(C)C)C(=O)NC(C)(C)C(=O)N[C@@H](C)C(=O)N[C@@H](CCCCN)C(=O)N[C@@H](CC(C)C)C(N)=O)C1=O (stereo partly shown) [JBT00002398, Ac-FQSKpNVHV-C(NEM)-GYFERL-Aib-AKL-NH2]	39.05	21.60
CCN1C(=O)CC(SC[C@H](NC(=O)[C@H]2CCCN2C(=O)[C@H](CCCCN)NC(=O)[C@H](CO)NC(=O)[C@H](CCC(N)=O)NC(=O)[C@H](Cc2ccccc2)NC(C)=O)C(=O)N[C@H](C(=O)N[C@@H](Cc2c[nH]cn2)C(=O)N[C@H](C(=O)N[C@@H](CC(=O)O)C(=O)NCC(=O)N[C@@H](Cc2ccc(O)cc2)C(=O)N[C@@H](Cc2ccccc2)C(=O)N[C@@H](CCC(=O)O)C(=O)N[C@@H](CCCNC(=N)N)C(=O)N[C@@H](CC(C)C)C(=O)NC(C)(C)C(=O)N[C@@H](C)C(=O)N[C@@H](CCCCN)C(=O)N[C@@H](CC(C)C)C(N)=O)C(C)C)C(C)C)C1=O (stereo partly shown) [JBT00002397]	10.60	
CCN1C(=O)CC(SC[C@H](NC(=O)[C@H](Cc2ccccc2)NC(=O)[C@H](Cc2ccc(O)cc2)NC(=O)CNC(=O)[C@H](CC(=O)O)NC(=O)[C@@H](NC(=O)[C@H](Cc2c[nH]cn2)NC(=O)[C@@H](NC(=O)[C@H](CC(N)=O)NC(=O)[C@H]2CCCN2C(=O)[C@H](CCCCN)NC(=O)[C@H](CO)NC(=O)[C@H](CCC(N)=O)NC(=O)[C@H](Cc2ccccc2)NC(C)=O)C(C)C)C(C)C)C(=O)N[C@@H](CCCNC(=N)N)C(=O)N[C@@H](CC(C)C)C(=O)NC(C)(C)C(=O)N[C@@H](C)C(=O)N[C@@H](CCCCN)C(=O)N[C@@H](CC(C)C)C(N)=O)C1=O (stereo partly shown) [JBT00002399]	10.70	

Test system: not listed separately
Experiment: FIGURE 78P
Details: not given

Compound	24 h Mouse Plasma Stability | Mean Remaining [%]	24 h Human Plasma Stability | Mean Remaining [%]
Ac-FQSKpNVHVDGYF-C(ME-400MA)-RL-Aib-AKL-NH2 [JBT00002404]	93.20	
CC(C)C[C@@H]1NC(=O)[C@H](CCCCN)NC(=O)[C@H](C)NC(=O)C(C)(C)NC(=O)[C@H](CC(C)C)NC(=O)[C@H](CCCNC(=N)N)NC(=O)[C@H](CCC(=O)O)NC(=O)[C@H](Cc2ccccc2)NC(=O)[C@H](Cc2ccc(O)cc2)NC(=O)CNC(=O)[C@H](CC(=O)O)NC(=O)[C@H](C(C)C)NC(=O)[C@H](Cc2c[nH]cn2)NC(=O)[C@H](C(C)C)NC(=O)[C@H](CC(N)=O)NC(=O)[C@H]2CCCN2C(=O)[C@H](CCCCN)NC(=O)[C@H](CO)NC(=O)[C@H](CCC(N)=O)NC(=O)[C@H](Cc2ccccc2)NC(=O)COCCOCCNC1=O [JBT00002408]	39.40	61.60
CC(C)C[C@@H]1NC(=O)[C@H](CCCCN)NC(=O)[C@H](C)NC(=O)C(C)(C)NC(=O)[C@H](CC(C)C)NC(=O)[C@H](CCCNC(=N)N)NC(=O)[C@H](CCC(=O)O)NC(=O)[C@H](Cc2ccccc2)NC(=O)[C@H](Cc2ccc(O)cc2)NC(=O)CNC(=O)[C@H](CC(=O)O)NC(=O)[C@H](C(C)C)NC(=O)[C@H](Cc2c[nH]cn2)NC(=O)[C@H](C(C)C)NC(=O)[C@H](CC(N)=O)NC(=O)[C@H]2CCCN2C(=O)[C@H](CCCCN)NC(=O)[C@H](CO)NC(=O)[C@H](CCC(N)=O)NC(=O)[C@H](Cc2ccccc2)NC(=O)CCOCCOCCOCCOCCOCCNC1=O [JBT00002405]		55.90
CC(C)C[C@@H]1NC(=O)[C@H](CCCCN)NC(=O)[C@H](C)NC(=O)C(C)(C)NC(=O)[C@H](CC(C)C)NC(=O)[C@H](CCCNC(=N)N)NC(=O)[C@H](CCC(=O)O)NC(=O)[C@H](Cc2ccccc2)NC(=O)[C@H](Cc2ccc(O)cc2)NC(=O)CNC(=O)[C@H](CC(=O)O)NC(=O)[C@H](C(C)C)NC(=O)[C@H](Cc2c[nH]cn2)NC(=O)[C@H](C(C)C)NC(=O)[C@H](CC(N)=O)NC(=O)[C@H]2CCCN2C(=O)[C@H](CCCCN)NC(=O)[C@H](CO)NC(=O)[C@H](CCC(N)=O)NC(=O)[C@H](Cc2ccccc2)NC(=O)CCOCCOCCOCCOCCNC1=O [JBT00002406]	38.10	62.80
Ac-FQSKpNVHVDGYFERL-Aib-AKLK(Ttds-Maleimid-HSA)- NH2 [JBT00002410]	79.15	
CC(C)C[C@@H]1NC(=O)[C@H](CCCCN)NC(=O)[C@H](C)NC(=O)C(C)(C)NC(=O)[C@H](CC(C)C)NC(=O)[C@H](CCCNC(=N)N)NC(=O)[C@H](CCC(=O)O)NC(=O)[C@H](Cc2ccccc2)NC(=O)[C@H](Cc2ccc(O)cc2)NC(=O)CNC(=O)[C@H](CC(=O)O)NC(=O)[C@H](C(C)C)NC(=O)[C@H](Cc2c[nH]cn2)NC(=O)[C@H](C(C)C)NC(=O)[C@H](CC(N)=O)NC(=O)[C@H]2CCCN2C(=O)[C@H](CCCCN)NC(=O)[C@H](CO)NC(=O)[C@H](CCC(N)=O)NC(=O)[C@H](Cc2ccccc2)NC(=O)CCOCCOCCOCCNC1=O [JBT00002407]		45.20

Test system: TFPI
Experiment: IC50 ELISA | Mean IC50 [nM]
Details: not given
Description: Table printed on a drawing sheet, FIGURE 78Z
Head of the field: IC50 ELISA | Mean IC50 [nM]
First copying reader's note: Continued table: the first body row (45.67) belongs to a compound on the preceding sheet, the last row probably continues on the next sheet, and cells with several values list single replicates.

Compound	IC50 [nM]
Hex-FQSKp-Cys(Acm)-VH-Tle-DaYFERL-Aib-AKL-Ttds- K(Ttds-Myr)--NH2 [JBT00002539]	10.1
(Hex-FQSKp-Cys(Acm)-VH-Tle-DaYFERL-Aib-AKLC- NH2)2-M2TriO [JBT00002533]	3.1
Hex-FQSKp-Cys(Acm)-VH-Tle-DaYFERL-Aib-AKLK(Ttds- Ac)--NH2 [JBT00002540]	3.99
Hex-FQSKp-Cys(Acm)-VH-Tle-DaYFERL-Aib-AKLC(ME- 400MA)-NH2 [JBT00002534]	15.3
Hex-FQSKp-Cys(Acm)-VH-Tle-DaYFERL-Aib-AKLK(Ttds- gGlu-Myr)--NH2 [JBT00002541]	24.3
Hex-FQSKp-Cys(Acm)-VH-Tle-DaYFERL-Aib-AK-OH [JBT00002543]	71.1
